# Experiments:
# [1] = test system: sole reaction in sheep red blood cells (SRBC); assay: sole reaction to sheep red blood cells (SRBC), foot volume increase 24 hours after induction; assay type: in vivo, BALB/c mice; conditions: 3.0 x 10⁻⁴ mol/kg orally for four days after the sensitization
# Protocol: The actions of the compounds of the present invention in the course of creation of the cellular immunity were studied using the sole reaction in sheep red blood cells (SRBC).
# BALB/c mice (female, age: 7 weeks) were sensitized by injecting 0.2 ml of SRBC adjusted to 2.5 x 10⁵ cells/ml with a physiological saline solution into caudal vein. Four days after the sensitization, the volume of the right foot of the mice was measured. Then, 0.025 ml of SRBC from the same lot as above adjusted to 4 x 10⁹ cells/ml was subcutaneously injected into the right sole to induce a reaction. 24 hours after the reaction has been induced, the intensity of the reaction was determined by subtracting the right foot volume before the reaction from the volume after the reaction. The test compounds at a concentration of 3.0 x 10⁻⁴ mol/kg were orally administered for four days after the sensitization.
# ICR mice = conditions: mouse, in vivo, po
# Excerpt: Compounds obtained in Synthetic Examples 18, 35, and 66 were orally administered to ICR mice (each dose to each group consisting of 10 mice).
# [2] = against Control 3 (Purified water)
# [3] = against Control 2 (5% ethanol-olive oil)
SMILES,dose up to which no death was caused (ICR mice),"Rate of suppression (%) [1, 3] [%]",also measured
"Oc1cccc(CNCc2cccc(O)c2)c1 [Synthetic Example 7, N,N-bis(3-hydroxybenzyl)amine]",,,"Rate of suppression (%) [1, 2]: 54.4%"
"COc1ccc(CC(=O)NCCc2ccc(O)c(OC)c2)cc1O [Synthetic Example 18, N-(4-hydroxy-3-methoxyphenetyl)-3-hydroxy-4-methoxyphenylacetamide]","≤ 1,000 mg/kg",,
"CN(Cc1ccc(O)cc1)C(=O)c1cccc(O)c1 [Synthetic Example 25, N-(4-hydroxybenzyl)-N-methyl-3-hydroxybenzamide]",,26.7,
"COc1ccc(CN(C)Cc2cccc(OC)c2)cc1 [Synthetic Example 27, N-(4-methoxybenzyl)-N-methyl-3-methoxybenzylamine]",,,"Rate of suppression (%) [1, 2]: 32.8%"
"CN(Cc1ccc(O)cc1)Cc1cccc(O)c1 [Synthetic Example 30, N-(4-hydroxybenzyl)-N-methyl-3-hydroxybenzylamine]",,33.2,
"COc1ccc(CN(C)Cc2ccc(O)c(OC)c2)cc1O [Synthetic Example 35, N-(4-hydroxy-3-methoxybenzyl)-N-methyl-3-hydroxy-4-methoxybenzylamine]","≤ 1,000 mg/kg",,
"COc1ccc(CNCc2ccc(OC)cc2)cc1.O=C(O)/C=C\C(=O)O [Synthetic Example 46, N,N-bis(4-methoxybenzyl)amine maleate]",,,Rate of suppression (%) ([1]; against Control 1 (0.5% gum arabic-purified water)): 38.1%
"CCN(Cc1ccc(O)cc1)Cc1cccc(O)c1 [Synthetic Example 61, N-ethyl-N-(4-hydroxybenzyl)-3-hydroxybenzylamine]",,21.8,
"COc1ccc(CCNCCc2ccc(O)c(OC)c2)cc1O [Synthetic Example 66, N-(4-hydroxy-3-methoxyphenetyl)-3-hydroxy-4-methoxyphenetylamine]","≤ 1,000 mg/kg",,

# From patent EP0613879A1, “PHELLODENDRINE ANALOGS AND ALLERGY TYPE IV SUPPRESSOR CONTAINING THE SAME AS ACTIVE INGREDIENT” (TSUMURA & CO., priority 1991, dated 1992)
